Reference: paper PMC3724985, “Isolation, biochemical characterization, and cloning of a bacteriocin from the poultry-associated Staphylococcus aureus strain CH-91” (Applied Microbiology and Biotechnology, 2012)
≈ marks a conversion by molar mass, not a printed value.

Legend:
[1] = tested on: Staphylococcus epidermidis ATCC 35347; type: cell-based
Text: (§1) S. aureus CH-91 was kindly provided by S. Takeuchi from Fukui Prefectural University, Japan (Takeuchi et al. [1999]). The strain has been deposited in the DSMZ collection under the number DSM 26258. Bacillus licheniformis NCTC 7224, Bacillus subtilis ATCC 6633, Lactococcus lactis subsp. lactis LOCK 0869, Micrococcus luteus strains DSMZ 20030 and CBM (clinical isolate), Sarcina lutea ATCC 9341, S. aureus strains ATCC 25923, M-122 (Polakowska et al. [2012]), Newman and RN4220, S. epidermidis ATCC 35347, Staphylococcus intermedius ATCC 29666, Staphylococcus pseudintermedius LMG 22219 (Devriese et al. [2005]), Staphylococcus saprophyticus ATCC 49453, Staphylococcus xylosus strains isolated from the skin of healthy chickens, Streptococcus mutans ATCC 25175, Streptococcus pneumoniae ATCC 49619, Escherichia coli K12 ATCC 10798, Klebsiella pneumoniae, Serratia marcescens, and Sphingomonas sp. AMC 3962 (Dziga et al. [2012]) were obtained from the collections of The Faculty of Biochemistry, Biophysics and Biotechnology, Jagiellonian University, Krakow, Poland. A list of strains used for assessment of the general occurrence of the bacteriocin gene is provided in the Electronic supplementary materials (ESM; Table S1). Gram-positive and Gram-negative bacteria were maintained at 37 °C in tryptic soy broth (TSB) and Luria-Bertani broth (both obtained from Sigma), respectively.
(§2) The bactericidal activity of BacCH91 was determined using the micro-dilution method in compliance with Clinical and Laboratory Standards Institute guidelines M7-A7 (CLSI [2006]). Briefly, the bacteria were either cultivated in cation-adjusted MHB to the early exponential phase or grown overnight on agar-solidified MHB supplemented with 2.5 % LHB in the case of Streptococcus spp. and L. lactis. Subsequently, the bacteria were diluted to 1 × 10^6 CFU/ml either in MHB or in MHB supplemented with 5 % LHB, in the case of the latter bacteria. Fifty-microliter portions of bacterial suspension were mixed with an equal volume of MHB containing serial twofold dilutions of bacteriocin. After overnight incubation at 37 °C, the optical density (OD) at 600 nm was measured. The MIC was defined as the minimum bacteriocin concentration for which the increase in OD was not observed compared to uninoculated broth.

Klebsiella pneumoniae = type: cell-based
Text: as §1, §2

[2] = tested on: Escherichia coli K12 ATCC 10798; type: cell-based
Text: as §1, §2

[3] = tested on: Staphylococcus aureus ATCC 25923; type: cell-based
Text: as §1, §2

Sarcina lutea ATCC 9341 = type: cell-based
Text: as §1, §2

[4] = tested on: Sphingomonas sp. AMC 3962; type: cell-based
Text: as §1, §2

[5] = tested on: Bacillus subtilis ATCC 6633; type: cell-based
Text: as §1, §2

[6] = tested on: Staphylococcus aureus Newman; type: cell-based
Text: as §1, §2

[7] = tested on: Bacillus licheniformis NCTC 7224; type: cell-based
Text: as §1, §2

[8] = tested on: Staphylococcus aureus CH91; type: cell-based
Text: as §1, §2

[9] = tested on: Staphylococcus saprophiticus ATCC 49453; type: cell-based
Text: as §1, §2

[10] = tested on: Streptococcus mutans ATCC 25175; type: cell-based
Text: as §1, §2

[11] = tested on: Staphylococcus pseudintermedius LMG 22219; type: cell-based
Text: as §1, §2

[12] = tested on: various S. aureus strains; type: cell-based
Text: as §1, §2

[13] = tested on: Staphylococcus aureus RN4220; type: cell-based; details: Staphylococcus aureus RN4220, bacteriocin gene positive strain; micro-dilution, CLSI M7-A7, cation-adjusted MHB, overnight 37 °C, OD 600 nm
Text: as §1, §2

[14] = tested on: Staphylococcus aureus M-122; type: cell-based
Text: as §1, §2

[15] = tested on: staphylococcal extracellular peptidases (aureolysin; staphopains A, B, and C; V8 peptidase); details: 30 μM, pH 6.4 or pH 7.5/7.8, enzyme/bacteriocin 1:20 by weight, 1 h at 37 °C; radial diffusion assay and HPLC; triplicate
Description: (§3) For pH, temperature, and protease resistance assays, the residual activity of BacCH91 was determined using the radial diffusion assay (Lemos Miguel et al. [2008]). In brief, plates were prepared containing 200× diluted overnight culture of S. lutea ATCC 9341 in TSB agar (1 %, w/v). Wells (2.4 mm diameter) were cut in the agar and filled with 10 μl of the BacCH91 preparation for testing. Following overnight incubation at 37 °C, the residual activity was measured as the diameter of inhibition zones.
(§4) We evaluated the susceptibility of BacCH91 to proteolysis by aureolysin; staphopains A, B, and C; V8 peptidase (Biocentrum); bovine alpha-chymotrypsin and TPCK-treated trypsin (Sigma); human elastase and cathepsin G (Biocentrum); pepsin from porcine gastric mucosa (Sigma); and proteinase K (A&A Biotechnology). […] The residual activity was determined with the radial diffusion assay using S. lutea as an indicator strain, and the bacteriocin molecule integrity was assessed using HPLC. […]

staphopain C (StpC) = details: 30 μM, 100 mM bis-Tris pH 6.4 or Tris–HCl pH 7.5 with 5 mM cysteine hydrochloride and 5 mM EDTA, 1:20 by weight, 1 h at 37 °C; radial diffusion assay and HPLC
Description: as §3, §4

## C/C=C(\NC(=O)[C@H](CCCCN)NC(=O)CNC(=O)[C@@H]1CS[C@@H](C)[C@@H](NC(=O)[C@@H]2CSC[C@@H](NC(=O)/C(=C/C)NC(=O)[C@@H](N)[C@@H](C)CC)C(=O)N[C@@H](Cc3ccccc3)C(=O)N[C@@H]([C@@H](C)CC)C(=O)NCC(=O)N2)C(=O)N2CCC[C@H]2C(=O)NCC(=O)N1)C(=O)NCC(=O)N[C@@H]1CSC[C@@H]2NC(=O)[C@H](Cc3ccccc3)NC(=O)[C@@H](CS/C=C\NC2=O)NC(=O)[C@H](CC(N)=O)NC(=O)[C@H](Cc2ccccc2)NC1=O [BacCH91]
[1]
  MIC: 1.6 µM (≈ 3.32 µg/mL)
Klebsiella pneumoniae
  MIC: >100 µM
[2]
  MIC: >100 µM
[3]
  MIC: 6.0 µM (≈ 12.5 µg/mL)
Sarcina lutea ATCC 9341
  MIC: 0.31 µM (≈ 0.644 µg/mL)
[4]
  MIC: >100 µM
[5]
  MIC: 2.6 µM (≈ 5.4 µg/mL)
[6]
  MIC: 6.0 µM (≈ 12.5 µg/mL)
[7]
  MIC: 1.8 µM (≈ 3.74 µg/mL)
[8]
  MIC: 1.3 µM (≈ 2.7 µg/mL)
[9]
  MIC: 3.0 µM (≈ 6.23 µg/mL)
[10]
  MIC: 2.0 µM (≈ 4.15 µg/mL)
[11]
  MIC: 1.5 µM (≈ 3.11 µg/mL)
[12]
  MIC: 6.0 µM (≈ 12.5 µg/mL)
[13]
  MIC: 6.0 µM (≈ 12.5 µg/mL)
[14]
  MIC: 4.0 µM (≈ 8.31 µg/mL)
[15]
  effect of staphylococcal peptidases on BacCH91: not affected
Staphopain C (StpC)
  effect of StpC on BacCH91: not affected
